Results on 23 compounds are retold here after US20240391923A1, “METHIONINE ADENOSYLTRANSFERASE 2A INHIBITOR FOR TREATING MTAP DELETION-TYPE CANCER” (SUZHOU GENHOUSE BIO CO., LTD., priority 2022, published 2024).

Structures are written as SMILES. Like-named read-outs stand apart in the source and are kept apart here. A value given as a limit tells only on which side of the number the result lay.

This assay concerns the target MAT2A recombinant protein (Homo sapiens, UniProt P31153). The assay can be described thus: MAT2A inhibitory activity (malachite green colorimetric enzyme assay). It is filed as biochemical. An excerpt: MAT2A catalyzes the reaction of L-methionine and ATP to generate S-adenosylmethionine (SAM), inorganic phosphonic acid, and inorganic diphosphonic acid. Malachite green reacts with inorganic phosphonic acid to generate a green product, and the enzyme activity of MAT2A can be indirectly reflected by detecting the content of the inorganic phosphonic acid in a sample.
The test compounds were formulated using DMSO and diluted 1:3 diluted through 10 concentration points to give a final starting concentration in the reaction system of 1000 nM. The test compounds at different concentrations described above were transferred to a 384-well plate. Experimental buffer (50 mM HEPES pH 7.5, 50 mM KCl, 10 mM MgCl2, 10 mM DTT) was prepared. 2×MAT2A recombinant protein was prepared using the buffer and added to a 384-well plate. A mixed solution of 2×L-methionine and ATP was prepared using the buffer, and added to a 384-well plate. The enzymatic reaction was started, and the reaction was carried out at room temperature for 60 min. 20 μL of a colorimetric detection reagent was added to the above system, and incubated at room temperature for 15 min. The absorbance at 630 nm was measured. The inhibition rate of the compound on the enzyme activity was calculated, and the inhibition rate value and the logarithm value of the compound concentration were fitted using non-linear regression (dose response-variable slope) to give the IC50 value of the test compound.

The mark [1] stands for this setting: IC50 score class, read-out: MAT2A Inhibition (score).

Chain of MAT2A recombinant protein (P31153 whole entry): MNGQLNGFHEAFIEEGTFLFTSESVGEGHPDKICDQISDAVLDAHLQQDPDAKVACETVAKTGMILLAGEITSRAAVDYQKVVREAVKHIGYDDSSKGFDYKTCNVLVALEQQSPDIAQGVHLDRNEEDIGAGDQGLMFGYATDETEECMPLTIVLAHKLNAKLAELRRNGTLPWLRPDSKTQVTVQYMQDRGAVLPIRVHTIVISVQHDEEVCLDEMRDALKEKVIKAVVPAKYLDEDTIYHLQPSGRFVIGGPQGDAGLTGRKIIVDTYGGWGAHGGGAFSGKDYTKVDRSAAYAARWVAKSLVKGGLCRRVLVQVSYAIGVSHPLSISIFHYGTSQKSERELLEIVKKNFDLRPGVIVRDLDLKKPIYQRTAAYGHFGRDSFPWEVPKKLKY

Regarding `CCn1nc2c(=O)n(-c3cccnc3)c3cc(Cl)ccc3c2c1C(F)(F)F` [Compound B24], the IC50 by setting is: under setting [1], 100 to 1000 nM; (read-out: MAT2A Inhibition) 115 nM.

For `O=c1c2nn(C3CCOCC3)cc2c2ccc(C(F)(F)F)nc2n1-c1cccnc1` [Compound B210], the IC50 runs as follows: under setting [1], 100 to 1000 nM; (read-out: MAT2A Inhibition) 603 nM.

Consider `Cn1cnc2c(=O)n(-c3cccc4ccccc34)c3cc(Cl)c(C#N)cc3c21` [Compound B378], for which the IC50 is more than 1000 nM under setting [1] and more than 1000 nM (read-out: MAT2A Inhibition).

Regarding `Cn1cc2c(n1)c(=O)n(Cc1ccn[nH]1)c1cc(Cl)ccc21` [Compound B117], the IC50 is less than 100 nM under setting [1] and 41.9 nM (read-out: MAT2A Inhibition).

With `Cn1cc2c(n1)c(=O)n(-c1ccc3ncoc3c1)c1nc(C(F)(F)F)ccc21` [Compound B209], the IC50 under setting [1] lay within 100 to 1000 nM and the IC50 (read-out: MAT2A Inhibition) is 122 nM.

Regarding `Cn1cc2c(n1)c(=O)n(-c1cccc(C(F)F)c1)c1nc(C(F)(F)F)ccc21` [Compound B194], the IC50 by setting is: under setting [1], less than 100 nM; (read-out: MAT2A Inhibition) 43.7 nM.

Take `COc1ccc(-n2c(=O)c3nn(C)cc3c3ccc(C(F)(F)F)nc32)cc1` [Compound B187]: the IC50 was 100 to 1000 nM under setting [1] and 284 nM (read-out: MAT2A Inhibition).

With `O=c1c2c(cnn2CC(F)F)c2ccc(Cl)cc2n1-c1cccnc1` [Compound B170], the IC50 runs as follows: under setting [1], 100 to 1000 nM; (read-out: MAT2A Inhibition) 220 nM.

Regarding `COc1ccc(Cn2cc3c(n2)c(=O)n(-c2cccc4[nH]ncc24)c2cc(Cl)c(C#N)cc32)cc1` [Compound B286], the IC50 was 100 to 1000 nM under setting [1] and 188 nM (read-out: MAT2A Inhibition).

On to `Cn1cc2c(n1)c(=O)n(-c1cccc(O)c1)c1cc(OC(F)(F)F)ccc21` [Compound B169], for which the IC50 reads like this: under setting [1], less than 100 nM; (read-out: MAT2A Inhibition) 97.4 nM.

With `COc1ccc(-n2c(=O)c3nn(C)cc3c3ccc(Cl)cc32)cc1` [Compound B185], the IC50 by setting is: under setting [1], 100 to 1000 nM; (read-out: MAT2A Inhibition) 379 nM.

As for `O=c1c2nccnc2c2ccc(Cl)cc2n1-c1cccnc1` [Compound B50], the IC50 is, setting by setting: under setting [1], 100 to 1000 nM; (read-out: MAT2A Inhibition) 488 nM.

`Cn1cc2c(n1)c(=O)n(-c1cccc(OC(F)F)c1)c1nc(C(F)(F)F)ccc21` [Compound B190]: the IC50 by setting is: under setting [1], 100 to 1000 nM; (read-out: MAT2A Inhibition) 133 nM.

`Cn1cc2c(n1)c(=O)n(-c1c(F)cccc1F)c1nc(C(F)(F)F)ccc21` [Compound B195]: the IC50 under setting [1] was less than 100 nM and the IC50 (read-out: MAT2A Inhibition) stood at 20 nM.

For the compound `Cn1cnc2c(=O)n(-c3cccc4cccnc34)c3cc(Cl)c(C#N)cc3c21` [Compound B379], the IC50 is more than 1000 nM under setting [1] and more than 1000 nM (read-out: MAT2A Inhibition).

On to `Cn1nc2c(=O)n(-c3cccnc3)c3cc(Cl)ccc3c2c1C(F)(F)F` [Compound B26], for which the IC50 is 100 to 1000 nM under setting [1] and 349 nM (read-out: MAT2A Inhibition).

In the case of `Cn1cc2c(n1)c(=O)n(-c1cccnc1)c1nc(Cl)ccc21` [Compound B244], the IC50 reads like this: under setting [1], less than 100 nM; (read-out: MAT2A Inhibition) 102 nM.

As to `Cn1ccc(Cn2ncc3c4ccc(Cl)cc4n(-c4cccnc4)c(=O)c32)n1` [Compound B168], the IC50 reads like this: under setting [1], less than 100 nM; (read-out: MAT2A Inhibition) 99.2 nM.

For the compound `COc1ccc(-n2cc3c(n2)c(=O)n(-c2ccccc2)c2nc(C(F)(F)F)ccc32)cn1` [Compound B231], the IC50 reads like this: under setting [1], less than 100 nM; (read-out: MAT2A Inhibition) 39.9 nM.

In the case of `Cn1cc2c(n1)c(=O)n(-c1ccc3ncoc3c1)c1cc(Cl)ccc21` [Compound B208], the IC50 by setting is: under setting [1], 100 to 1000 nM; (read-out: MAT2A Inhibition) 178 nM.

`CCn1cc2c(n1)c(=O)n(-c1ccncc1)c1cc(Cl)ccc21` [Compound B10]: the IC50 was more than 1000 nM under setting [1] and more than 1000 nM (read-out: MAT2A Inhibition).

Take `Cn1cc2c(n1)c(=O)n(-c1cccc(NS(C)(=O)=O)c1)c1nc(C(F)(F)F)ccc21` [Compound B214]: the IC50 is less than 100 nM under setting [1] and 14.9 nM (read-out: MAT2A Inhibition).

As for `Cc1nnc2c(=O)n(-c3cccnc3)c3cc(Cl)ccc3n12` [Compound B23], the IC50 by setting is: under setting [1], 100 to 1000 nM; (read-out: MAT2A Inhibition) 908 nM.
